76 molecules from the RepoRT retention time repository (doi:10.1093/pcp/pcn183) can be followed below.

This data set is described as follows: RP, Waters ACQUITY UPLC BEH C18, 38 °C, 0.24 mL/min; A: water + 0.1% formic acid, pH 3; B: acetonitrile + 0.1% formic acid, pH 3; gradient (min/%B) 0/0 0.25/0 0.4/9 0.8/17 1.9/100 2.1/100 2.11/0 3/0. The conditions noted are these: stereoisomer not certain.

Where a name gives a salt, the structure may show the parent alone.

On to `CCCCCCCCCCCC(=O)OCC(O)COP(=O)([O-])OCC[N+](C)(C)C` (stereo unspecified) [Phosphocholine,1-Lauroyl-2-Hydroxy-sn-Glycero-3-], for which the LC retention time was 1.79 min.
Then `Nc1ccc(O)cc1` [4-Aminophenol hydrochloride], with 0.2 min; and `O=C1OC2C(O)C(O)OC2C1O` [D-Glucurono-6,3-lactone], with 0.19 min.
Take `CC(=O)OCC1OC(Oc2c(-c3ccc(O)c(O)c3)oc3cc(O)cc(O)c3c2=O)C(O)C(O)C1O` (stereo unspecified) [Quercetin-3-O-glucose-6''-acetate]: the LC retention time was found to be 1.46 min.
Then `OCC1OC(Oc2cc3c(OC4OC(CO)C(O)C(O)C4O)cc(O)cc3[o+]c2-c2ccc(O)cc2)C(O)C(O)C1O` (stereo unspecified) [Pelargonin chloride], with 1.14 min; and `NC(CCC(=O)NC(CS)C(=O)O)C(=O)O` (stereo unspecified) [gamma-Glu-Cys], with 0.55 min.
As for `CCCCCC1CCC(=O)O1` (stereo unspecified) [4-Nonanolide], the figure is 1.87 min; as for `O=C(CCc1ccccc1)c1c(O)cc(O)cc1OC1OC(CO)C(O)C(O)C1O` (stereo unspecified) [4-deoxyphloridzin], 1.5 min; as for `COc1cc(C=Cc2cc(O)cc(OC3OC(CO)C(O)C(O)C3O)c2)ccc1O` (stereo unspecified) [E-4,5'-dihydroxy-3-methoxy-3'-glucopyranosylstilbene], 1.42 min.
As to `NCCC(=O)O` [beta-Alanine], the LC retention time was determined as 0.16 min.
Turning to `O=C1CC[C@@H](C(=O)O)N1` [L-Pyroglutamic acid], the LC retention time amounted to 0.41 min.
As for `C=C(CC(=O)O)C(=O)O` [Itaconic acid], the LC retention time turned out to be 1.09 min.
As for `O=C(O)c1ccc(O)c(O)c1` [3,4-Dihydroxybenzoic acid], the figure is 1.14 min; as for `Cc1cc2nc3cc(C)c(N)cc3[n+](-c3ccccc3)c2cc1N` [Safranine], 1.57 min.
Then `O=c1cc(-c2ccc(O)c(OC3OC(CO)C(O)C(O)C3O)c2)oc2cc(OC3OC(CO)C(O)C(O)C3O)cc(O)c12` (stereo unspecified) [luteolin-3',7-di-O-glucoside], with 1.35 min; and `CC(=O)OCC=C(C)CCC=C(C)CCC=C(C)C` (mixture of isomers) [(cis,trans)-Farnesyl acetate], with 2 min; and `N[C@@H](CSCC(=O)O)C(=O)O` [S-Carboxymethyl-L-cysteine], with 0.2 min.
Take `CCCCc1ccc(C(=O)O)nc1` [Fusaric acid]: the LC retention time came out at 1.37 min.
Then `COc1cc2c(cc1O)C1Cc3ccc(OC)c(O)c3CN1CC2` (stereo unspecified) [Scoulerin], with 1.37 min.
Regarding `Nc1nc2c(ncn2C2OC(CO)C(O)C2O)c(=O)[nH]1` (stereo unspecified) [Guanosine], the LC retention time stood at 1.08 min.
Then `OCC1OC(OC2C(O)C(O)COC2(O)CO)C(O)C(O)C1O` (stereo unspecified), with 0.18 min; and `OCC(O)C(O)C(O)CO` (stereo unspecified), with 0.17 min; and `CC1CCC2(NC1)OC1CC3C4CC=C5CC(O)CCC5(C)C4CCC3(C)C1C2C` (stereo unspecified) [Solasodine], with 1.72 min.
Then `CC(C)CCC(=O)O` [4-methyl valeric acid], with 0.56 min; and `O=C1CC(c2ccc(O)c(O)c2)Oc2cc(OC3OC(CO)C(O)C(O)C3O)cc(O)c21` (stereo unspecified) [eriodictyol-7-O-glucoside], with 1.41 min; and `O=c1ccn(C2OC(CO)C(O)C2O)c(=O)[nH]1` (stereo unspecified) [Uridine], with 0.66 min.
As for `NCCCCNCCCN` [Spermidine], the figure is 0.14 min.
Take `Cc1ncc(C[n+]2csc(CCOP(=O)(O)O)c2C)c(N)n1` [Thiamine monophosphate chloride dihydrate]: the LC retention time was found to be 0.19 min.
For `OCCNCCO` [Diethanolamine], the LC retention time worked out at 0.16 min.
Regarding `Nc1nc2nc[nH]c2c(=O)[nH]1` [Guanine], the LC retention time is 0.32 min.
`COc1cc(-c2oc3cc(O)cc(O)c3c(=O)c2O)ccc1O` [Isorhamnetin]: the LC retention time is 1.7 min.
Then `COc1cc(/C=C/C(=O)O)ccc1O` [trans-4-Hydroxy-3-methoxycinnamic acid], with 1.44 min.
As for `N[C@@H](Cc1ccc(O)c(Cl)c1)C(=O)O` [3-Chloro-L-tyrosine hydrochloride], the figure is 1.1 min; as for `Nc1ccn(C2OC(CO)C(O)C2O)c(=O)n1` (stereo unspecified) [Cytidine,cell culture tested], 0.34 min; as for `CC(C(=O)O)C(=O)O` [Methylmalonic acid], 0.54 min.
Then `Cc1ncc(C[n+]2csc(CCO)c2C)c(N)n1` [Thiamine hydrochloride], with 0.19 min; and `O=C(O)Cc1cc(O)ccc1O` [Homogentisic acid], with 1.1 min; and `OCC1OC(Oc2cc(O)cc3[o+]c(-c4ccc(O)c(O)c4)c(OC4OC(CO)C(O)C(O)C4OC4OCC(O)C(O)C4O)cc23)C(O)C(O)C1O` (stereo unspecified), with 1.12 min.
As for `NC(=O)NC(CC(=O)O)C(=O)O` (racemic) [Carbamoyl-DL-aspartic Acid], the LC retention time stood at 0.12 min.
As for `COc1ccc(C2CC(=O)c3c(O)cc(OC4OC(CO)C(O)C(O)C4OC4OC(C)C(O)C(O)C4O)cc3O2)cc1` (stereo unspecified) [Poncirin], the figure is 1.56 min; as for `O=C(O)CCC(=O)O` [Succinic acid], 0.49 min.
Then `COc1cc(-c2[o+]c3cc(O)cc(OC4OC(CO)C(O)C(O)C4O)c3cc2OC2OC(COC3OC(C)C(OC(=O)C=Cc4ccc(O)cc4)C(O)C3O)C(O)C(O)C2O)cc(O)c1O` (stereo unspecified), with 1.36 min; and `Nc1ncn[nH]1` [3-Amino-1,2,4-triazole], with 0.18 min; and `NC(CCSCC(N)C(=O)O)C(=O)O` (stereo not drawn) [L(+)-Cystathionine], with 0.16 min.
Then `COc1cccc(C=CC(=O)O)c1` [3-Methoxycinnamic acid], with 1.67 min.
For the molecule `O=C(C=Cc1ccc(O)cc1)OCC1OC(Oc2c(-c3ccc(O)cc3)oc3cc(O)cc(O)c3c2=O)C(O)C(O)C1O` (stereo unspecified) [Tiliroside], the LC retention time is 1.57 min.
Then `O=C(O)C(O)c1cccc(O)c1` (stereo unspecified) [3-Hydroxymandelic acid], with 1 min; and `NCCOP(=O)(O)O` [O-Phosphorylethanolamine], with 0.16 min.
As for `Cc1cc2nc3c(=O)[nH]c(=O)nc-3n(CC(O)C(O)C(O)COP(=O)(O)O)c2cc1C` (stereo unspecified), the figure is 1.19 min; as for `NCCc1cnc[nH]1` [Histamine], 0.14 min; as for `C=CC(C)(O)CCC=C(C)CCC=C(C)C` (stereo not drawn) [cis-Nerolidol], 1.81 min.
As for `CS(=O)CCCCN=C=S` (racemic) [D,L-sulforaphane], the figure is 1.44 min; as for `CC(C)[N+](=O)[O-]` [2-nitropropane], 0.3 min; as for `O=P(O)(O)OCC1OC(O)CC1O` (stereo unspecified) [2-Deoxyribose-5-phosphate sodium salt], 0.18 min.
Consider `CNC(C)C(=O)O` (racemic) [N-Methyl-DL-Alanine], for which the LC retention time came to 0.18 min.
As to `O=c1cccc[nH]1` [2-Hydroxypyridine], the LC retention time was 0.68 min.
As for `CS(=O)(=O)O` [Methanesulfonic acid solution], the figure is 0.17 min; as for `O=C(O)C1(O)CC(O)C(O)C(O)C1` [D-(-)-Quinic acid], 0.19 min; as for `CCCCCCCCCCCCCC=CC(O)C(N)COC1OC(CO)C(O)C(O)C1O` [D-Glucosyl-beta1-1'-D-erythoro-Sphingosine], 1.84 min.
Take `O=C(O)C=C(CC(=O)O)C(=O)O` [trans-Aconitic acid]: the LC retention time was 0.63 min.
Take `CC1OC(OC2C(Oc3cc(O)c4c(=O)c(O)c(-c5ccc(O)cc5)oc4c3)OC(CO)C(O)C2O)C(O)C(O)C1O` (stereo unspecified) [kaempferol-7-O-neohesperidoside]: the LC retention time was 1.44 min.
For the molecule `NCC(=O)NCC(=O)O` [Gly-Gly], the LC retention time turned out to be 0.16 min.
As for `OCC1OC(OCC2OC(O)(CO)C(O)C2O)C(O)C(O)C1O` (stereo unspecified) [Palatinose Monohydrate], the LC retention time stood at 0.19 min.
Regarding `CC(C)=CCNc1ncnc2nc[nH]c12` [6-(gamma,gamma-Dimethylallylamino)purine], the LC retention time is 1.32 min.
As to `NCCc1ccc(O)cc1` [Tyramine], the LC retention time came to 0.67 min.
`COc1ccc(-c2coc3cc(OC4OC(CO)C(O)C(O)C4O)ccc3c2=O)cc1` (stereo unspecified) [Ononin]: the LC retention time was 1.52 min.
Then `OCC1OC(Oc2cc3c(O)cc(O)cc3[o+]c2-c2cc(O)c(O)c(O)c2)C(O)C(O)C1O` (stereo not drawn) [Delphinidin-3-O-beta-glucopyranoside], with 1.16 min.
Then `CN(C)C(=N)N=C(N)N` [1,1-Dimethylbiguanide hydrochloride], with 0.21 min.
As for `COc1cc(CC(=O)O)ccc1O` [Homovanillic acid], the figure is 1.33 min; as for `O=C(O)[C@@H]1C[C@@H](O)CN1` [trans-4-Hydroxy-L-proline], 0.17 min; as for `COc1cc(-c2[o+]c3cc(O)cc(OC4OC(CO)C(O)C(O)C4O)c3cc2OC2OC(CO)C(O)C(O)C2O)cc(OC)c1O` (stereo unspecified) [Malvin chloride], 1.15 min.
For `CNCC(=O)O` [Sarcosine], the LC retention time is 0.16 min.
Then `O=C(O)CNC(=O)Cc1ccccc1` [Phenaceturic acid], with 1.36 min; and `CC(C)[C@H](N)C(=O)O` [L-Valine], with 0.25 min.
As for `OCC1OC(OC2C(CO)OC(O)(CO)C2O)C(O)C(O)C1O` (stereo unspecified), the figure is 0.19 min.
For `Nc1ncnc2c1ncn2C1OC(CO)C(OP(=O)(O)O)C1O` (stereo unspecified) [Adenosine 3'-monophosphate From Yeast], the LC retention time amounted to 0.64 min.
